Results from ChEMBL document CHEMBL4477263, “Nature-inspired design of tetraindoles: Optimization of the core structure and evaluation of structure-activity relationship” (Bioorg Med Chem Lett, 2016).
Each block holds one compound with its values, some of them ahead of it. Active and inactive are the calls of the source. The calls are words filed in the database; no cut-off is given here.

Legend:
MDA-MB-231 [1] = assay: Antiproliferative activity against human MDA-MB-231 cells after 48 hrs by MTT assay; type: functional, cell-based; conditions: MDA-MB-231, 48 h
MDA-MB-231 [2] = assay: Antiproliferative activity against human MDA-MB-231 cells at 20 uM after 48 hrs by MTT assay; type: functional, cell-based
Mahlavu = assay: Antiproliferative activity against human Mahlavu cells after 48 hrs by MTT assay; type: functional, cell-based
MIA PaCa-2 [3] = assay: Cell cycle arrest in human MIAPaCa2 cells assessed as accumulation in G2/M phase at 0.6 uM after 48 hrs by propidium iodide staining based flow cytometry relative to control; type: functional
MIA PaCa-2 [4] = assay: Cell cycle arrest in human MIAPaCa2 cells assessed as accumulation in G2/M phase at 0.6 uM after 24 hrs by propidium iodide staining based flow cytometry relative to control; type: functional
SK-HEP1 = assay: Antiproliferative activity against human SKHEP1 cells after 48 hrs by MTT assay; type: functional, cell-based; conditions: SK-HEP1, 48 h
U-87 MG = assay: Antiproliferative activity against human U87 cells after 48 hrs by MTT assay; type: functional, cell-based, U-87MG ATCC
HCT-116 = assay: Antiproliferative activity against human HCT116 cells after 48 hrs by MTT assay; type: functional, cell-based; conditions: HCT-116, 48 h
MIA PaCa-2 [5] = assay: Antiproliferative activity against human MIAPaCa2 cells after 48 hrs by MTT assay; type: functional, cell-based; conditions: MIA PaCa-2, 48 h
NCI-H441 = assay: Antiproliferative activity against human H441 cells after 48 hrs by MTT assay; type: functional, cell-based; conditions: NCI-H441, 48 h
A549 = assay: Antiproliferative activity against human A549 cells after 48 hrs by MTT assay; type: functional, cell-based; conditions: A549, 48 h
NCI-H460 = assay: Antiproliferative activity against human H460 cells after 48 hrs by MTT assay; type: functional, cell-based; conditions: NCI-H460, 48 h
[6] = Antiproliferative activity against human CL1-5 cells after 48 hrs by MTT assay; type: functional, cell-based; conditions: CL1-5, 48 h
MIA PaCa-2 [7] = assay: Cell cycle arrest in human MIAPaCa2 cells assessed as accumulation in S phase at 0.6 uM after 24 hrs by propidium iodide staining based flow cytometry (reference value: 38%); type: functional
MIA PaCa-2 [8] = assay: Cell cycle arrest in human MIAPaCa2 cells assessed as accumulation in S phase at 0.6 uM after 36 hrs by propidium iodide staining based flow cytometry (reference value: 38%); type: functional
MIA PaCa-2 [9] = assay: Cell cycle arrest in human MIAPaCa2 cells assessed as accumulation in S phase at 0.6 uM after 48 hrs by propidium iodide staining based flow cytometry (reference value: 19.7%); type: functional
MIA PaCa-2 [10] = assay: Cell cycle arrest in human MIAPaCa2 cells assessed as accumulation in G2/M phase at 0.6 uM after 36 hrs by propidium iodide staining based flow cytometry relative to control; type: functional
MIA PaCa-2 [11] = assay: Induction of apoptosis in human MIAPaCa2 cells assessed as live cells at 0.6 uM after 12 hrs by Annexin V-FITC/propidium iodide staining based flow cytometry (reference value: 98.9%); type: functional
MIA PaCa-2 [12] = assay: Induction of apoptosis in human MIAPaCa2 cells assessed as live cells at 0.6 uM after 24 hrs by Annexin V-FITC/propidium iodide staining based flow cytometry (reference value: 98.3%); type: functional
MIA PaCa-2 [13] = assay: Induction of apoptosis in human MIAPaCa2 cells assessed as live cells at 0.6 uM after 36 hrs by Annexin V-FITC/propidium iodide staining based flow cytometry (reference value: 98%); type: functional
MIA PaCa-2 [14] = assay: Induction of apoptosis in human MIAPaCa2 cells assessed as live cells at 0.6 uM after 48 hrs by Annexin V-FITC/propidium iodide staining based flow cytometry (reference value: 98.4%); type: functional
MIA PaCa-2 [15] = assay: Induction of apoptosis in human MIAPaCa2 cells assessed as early apoptotic cells at 0.6 uM after 12 hrs by Annexin V-FITC/propidium iodide staining based flow cytometry (reference value: 1%); type: functional
MIA PaCa-2 [16] = assay: Induction of apoptosis in human MIAPaCa2 cells assessed as early apoptotic cells at 0.6 uM after 24 hrs by Annexin V-FITC/propidium iodide staining based flow cytometry (reference value: 1.49%); type: functional
MIA PaCa-2 [17] = assay: Induction of apoptosis in human MIAPaCa2 cells assessed as early apoptotic cells at 0.6 uM after 36 hrs by Annexin V-FITC/propidium iodide staining based flow cytometry (reference value: 1.7%); type: functional
MIA PaCa-2 [18] = assay: Induction of apoptosis in human MIAPaCa2 cells assessed as early apoptotic cells at 0.6 uM after 48 hrs by Annexin V-FITC/propidium iodide staining based flow cytometry (reference value: 1.28%); type: functional
MIA PaCa-2 [19] = assay: Induction of apoptosis in human MIAPaCa2 cells assessed as late apoptotic cells at 0.6 uM after 12 hrs by Annexin V-FITC/propidium iodide staining based flow cytometry (reference value: 0.07%); type: functional
MIA PaCa-2 [20] = assay: Induction of apoptosis in human MIAPaCa2 cells assessed as late apoptotic cells at 0.6 uM after 24 hrs by Annexin V-FITC/propidium iodide staining based flow cytometry (reference value: 0.16%); type: functional
MIA PaCa-2 [21] = assay: Induction of apoptosis in human MIAPaCa2 cells assessed as late apoptotic cells at 0.6 uM after 36 hrs by Annexin V-FITC/propidium iodide staining based flow cytometry (reference value: 0.24%); type: functional
MIA PaCa-2 [22] = assay: Induction of apoptosis in human MIAPaCa2 cells assessed as late apoptotic cells at 0.6 uM after 48 hrs by Annexin V-FITC/propidium iodide staining based flow cytometry (reference value: 0.21%); type: functional
MIA PaCa-2 [23] = assay: Induction of apoptosis in human MIAPaCa2 cells assessed as necrotic cells at 0.6 uM after 12 hrs by Annexin V-FITC/propidium iodide staining based flow cytometry (reference value: 0.04%); type: functional
MIA PaCa-2 [24] = assay: Induction of apoptosis in human MIAPaCa2 cells assessed as necrotic cells at 0.6 uM after 24 hrs by Annexin V-FITC/propidium iodide staining based flow cytometry (reference value: 0.06%); type: functional
MIA PaCa-2 [25] = assay: Induction of apoptosis in human MIAPaCa2 cells assessed as necrotic cells at 0.6 uM after 36 hrs by Annexin V-FITC/propidium iodide staining based flow cytometry (reference value: 0.06%); type: functional
MIA PaCa-2 [26] = assay: Induction of apoptosis in human MIAPaCa2 cells assessed as necrotic cells at 0.6 uM after 48 hrs by Annexin V-FITC/propidium iodide staining based flow cytometry (reference value: 0.06%); type: functional
MIA PaCa-2 [27] = assay: Induction of apoptosis in human MIAPaCa2 cells assessed as down regulation of Bcl-2 protein expression at 0.2 to 0.8 uM after 12 to 48 hrs by western immunoblot analysis; type: functional, cell-based
MIA PaCa-2 [28] = assay: Induction of apoptosis in human MIAPaCa2 cells assessed as down regulation of Bak protein expression at 0.2 to 0.8 uM after 12 to 48 hrs by western immunoblot analysis; type: functional, cell-based
MIA PaCa-2 [29] = assay: Induction of apoptosis in human MIAPaCa2 cells assessed as upregulation of cleaved PARP protein expression at 0.2 to 0.8 uM after 12 to 48 hrs by western immunoblot analysis; type: functional, cell-based
MIA PaCa-2 [30] = assay: Antitumor activity against human MIAPaCa2 cells xenografted in NOD/SCID mouse assessed as tumor growth inhibition at 25 mg/kg, ip administered every 3.5 days per week for 5 weeks measured on day 38 post treatment relative to control; type: functional; conditions: MIA PaCa-2, ip, read-out: TGI
[31] = Toxicity in NOD/SCID mouse xenografted with human MIAPaCa2 cells assessed as body weight loss at 25 mg/kg, ip administered every 3.5 days per week for 5 weeks; type: organism-based; conditions: in vivo

IC50 (MDA-MB-231 [1]): > 20000 nM
Structure (SMILES): Oc1ccc2[nH]cc(C(Cc3ccc(CC(c4c[nH]c5ccc(O)cc45)c4c[nH]c5ccc(O)cc45)cc3)c3c[nH]c4ccc(O)cc34)c2c1

IC50 (MDA-MB-231 [1]): 1500 nM
Structure (SMILES): Oc1ccc2[nH]cc(C(c3c[nH]c4ccc(O)cc34)c3c4c(c(C(c5c[nH]c6ccc(O)cc56)c5c[nH]c6ccc(O)cc56)c5ccccc35)CCCC4)c2c1

IC50 (MDA-MB-231 [1]): 8000 nM
Structure (SMILES): Cc1cc(C(c2c[nH]c3ccc(O)cc23)c2c[nH]c3ccc(O)cc23)c(C)cc1C(c1c[nH]c2ccc(O)cc12)c1c[nH]c2ccc(O)cc12

IC50 (MDA-MB-231 [1]): 4000 nM
Structure (SMILES): Oc1ccc2[nH]cc(C(c3c[nH]c4ccc(O)cc34)c3cccc4c(C(c5c[nH]c6ccc(O)cc56)c5c[nH]c6ccc(O)cc56)cccc34)c2c1

IC50 (MDA-MB-231 [1]): 2450 nM
Structure (SMILES): Oc1ccc2[nH]cc(C(c3cc(Br)c(C(c4c[nH]c5ccc(O)cc45)c4c[nH]c5ccc(O)cc45)cc3Br)c3c[nH]c4ccc(O)cc34)c2c1

IC50 (MDA-MB-231 [1]): 560 nM
Structure (SMILES): Oc1ccc2[nH]cc(C(c3c(F)c(F)c(C(c4c[nH]c5ccc(O)cc45)c4c[nH]c5ccc(O)cc45)c(F)c3F)c3c[nH]c4ccc(O)cc34)c2c1

Continued, compound first:

Structure (SMILES): Oc1ccc2[nH]cc(C(c3c[nH]c4ccc(O)cc34)c3c4ccccc4c(C(c4c[nH]c5ccc(O)cc45)c4c[nH]c5ccc(O)cc45)c4ccccc34)c2c1
IC50 (MDA-MB-231 [1]): 710 nM

Structure (SMILES): Oc1ccc2[nH]cc(C(c3ccc4ccc5ccc(C(c6c[nH]c7ccc(O)cc67)c6c[nH]c7ccc(O)cc67)nc5c4n3)c3c[nH]c4ccc(O)cc34)c2c1
IC50 (MDA-MB-231 [1]): > 20000 nM

Structure (SMILES): Oc1ccc2[nH]cc(C(c3ccc(-c4cc(C(c5c[nH]c6ccc(O)cc56)c5c[nH]c6ccc(O)cc56)c(-c5ccc(C(c6c[nH]c7ccc(O)cc67)c6c[nH]c7ccc(O)cc67)cc5)cc4C(c4c[nH]c5ccc(O)cc45)c4c[nH]c5ccc(O)cc45)cc3)c3c[nH]c4ccc(O)cc34)c2c1
Activity (MDA-MB-231 [2]): inactive

Structure (SMILES): Cc1c(C)c(C(c2c[nH]c3ccc(O)cc23)c2c[nH]c3ccc(O)cc23)c(C)c(C)c1C(c1c[nH]c2ccc(O)cc12)c1c[nH]c2ccc(O)cc12
IC50 (MDA-MB-231 [1]): 1020 nM

Structure (SMILES): Oc1ccc2[nH]cc(C(c3ccc4cc(C(c5c[nH]c6ccc(O)cc56)c5c[nH]c6ccc(O)cc56)ccc4c3)c3c[nH]c4ccc(O)cc34)c2c1
IC50 (MDA-MB-231 [1]): > 20000 nM

Structure (SMILES): Oc1ccc2[nH]cc(C(/C=C/c3ccc(/C=C/C(c4c[nH]c5ccc(O)cc45)c4c[nH]c5ccc(O)cc45)cc3)c3c[nH]c4ccc(O)cc34)c2c1
IC50 (MDA-MB-231 [1]): 2000 nM

Structure (SMILES): Oc1ccc2[nH]cc(C(c3ccc4ccc(C(c5c[nH]c6ccc(O)cc56)c5c[nH]c6ccc(O)cc56)cc4c3)c3c[nH]c4ccc(O)cc34)c2c1
IC50 (MDA-MB-231 [1]): > 20000 nM

Structure (SMILES): Oc1ccc2[nH]cc(C(c3ccc(-c4ccc(C(c5c[nH]c6ccc(O)cc56)c5c[nH]c6ccc(O)cc56)cc4)cc3)c3c[nH]c4ccc(O)cc34)c2c1
IC50 (MDA-MB-231 [1]): 10000 nM

Structure (SMILES): Oc1ccc2[nH]cc(C(c3c(Cl)c(Cl)c(C(c4c[nH]c5ccc(O)cc45)c4c[nH]c5ccc(O)cc45)c(Cl)c3Cl)c3c[nH]c4ccc(O)cc34)c2c1
IC50 (Mahlavu): 3500 nM
Activity (MIA PaCa-2 [3]): 20%
Activity (MIA PaCa-2 [4]): 12%
IC50 (MDA-MB-231 [1]): 560 nM
IC50 (SK-HEP1): 470 nM
IC50 (U-87 MG): > 5000 nM
IC50 (HCT-116): 1320 nM
IC50 (MIA PaCa-2 [5]): 190 nM
IC50 (NCI-H441): 600 nM
IC50 (A549): 2440 nM
IC50 (NCI-H460): 830 nM
IC50 [6]: 630 nM
Activity (MIA PaCa-2 [7]): 55.8%
Activity (MIA PaCa-2 [8]): 51.4%
Activity (MIA PaCa-2 [9]): 46.4%
Activity (MIA PaCa-2 [10]): 16%
Activity (MIA PaCa-2 [11]): 98.6%
Activity (MIA PaCa-2 [12]): 97.6%
Activity (MIA PaCa-2 [13]): 95.6%
Activity (MIA PaCa-2 [14]): 93.3%
Activity (MIA PaCa-2 [15]): 0.71%
Activity (MIA PaCa-2 [16]): 2.1%
Activity (MIA PaCa-2 [17]): 3.21%
Activity (MIA PaCa-2 [18]): 5.28%
Activity (MIA PaCa-2 [19]): 0.58%
Activity (MIA PaCa-2 [20]): 0.3%
Activity (MIA PaCa-2 [21]): 0.96%
Activity (MIA PaCa-2 [22]): 1.18%
Activity (MIA PaCa-2 [23]): 0.09%
Activity (MIA PaCa-2 [24]): 0.03%
Activity (MIA PaCa-2 [25]): 0.2%
Activity (MIA PaCa-2 [26]): 0.23%
Activity (MIA PaCa-2 [27]): Active
Activity (MIA PaCa-2 [28]): Active
Activity (MIA PaCa-2 [29]): Active
inhibition in vivo at 25 mg/kg (MIA PaCa-2 [30]): 35%
Activity [31]: Non-Toxic

Structure (SMILES): Oc1ccc2[nH]cc(C(/C=C/c3ccc(C(CC(c4c[nH]c5ccc(O)cc45)c4c[nH]c5ccc(O)cc45)c4c[nH]c5ccc(O)cc45)cc3)c3c[nH]c4ccc(O)cc34)c2c1 (stereo not drawn)
IC50 (MDA-MB-231 [1]): > 20000 nM

Structure (SMILES): Oc1ccc2[nH]cc(C(c3c[nH]c4ccc(O)cc34)c3ccc(C(c4c[nH]c5ccc(O)cc45)c4c[nH]c5ccc(O)cc45)c4ccccc34)c2c1
IC50 (MDA-MB-231 [1]): 20000 nM
